This passage reports CC50 results from PMC6792352, “Limited Chemical Structural Diversity Found to Modulate Thyroid Hormone Receptor in the Tox21 Chemical Library” (Environmental Health Perspectives, 2019).

This series in a line: in vitro. Conditions: rat, gh3-tre-luc cells.

Structures can show the parent of a compound that is named as a salt.

`CCOP(=S)(OCC)SCSCC` [Phorate]: the half-maximal cytotoxic concentration (CC50) at 24 h (AC50 (uM) modified / 1000, Tox21_110001=Tox21_300398, viability, 1 nM T3 present, 24 h) was over 90 µM.

With `c1cc2ccc3ccc4ccc5cccc6c(c1)c2c3c4c56` [Benzo(g,h,i)perylene], the CC50 at 24 h (AC50 (uM) modified / 1000) was over 4 µM.

Turning to `CCC(C)c1cc([N+](=O)[O-])cc([N+](=O)[O-])c1O` (centres unmarked) [Dinoseb], the CC50 at 24 h runs as follows: (AC50 (uM) modified / 1000, Tox21_110001=Tox21_201878, viability, 1 nM T3 present, 24 h) over 90 µM; (AC50 (uM) modified / 1000, Tox21_110001=Tox21_300421, viability, 1 nM T3 present, 24 h) 20.4 µM.

Regarding `CN1[C@@H]2CC[C@H]1CC(OC1c3ccccc3CCc3ccccc31)C2` (some centres unmarked) [Deptropine citrate], it took 12.2 µM to reach half-maximal cytotoxicity (AC50 (uM) modified / 1000) (CC50 at 24 h). In other words, the double-digit micromolar range.

As for `CCCCC(CC)COC(=O)COc1ccc(Cl)cc1C` (centres unmarked) [MCPA-2-ethylhexyl], the CC50 at 24 h (AC50 (uM) modified / 1000) is over 90 µM.

Turning to `COc1ccc([C@@H]2CC(=O)c3c(O)cc(O[C@@H]4O[C@H](CO[C@@H]5O[C@@H](C)[C@H](O)[C@@H](O)[C@H]5O)[C@@H](O)[C@H](O)[C@H]4O)cc3O2)cc1OC` [Methyl hesperidin], the CC50 at 24 h (AC50 (uM) modified / 1000) was over 90 µM.

Under “AC50 (uM) modified / 1000”, `C[C@@H]1C(=O)C[C@H]2[C@]3(C)CC[C@@]2([C@H](C)C(=O)O)C(=O)[C@H]13` [Santonic acid] yielded a CC50 at 24 h of over 50 µM.

Where the note is “AC50 (uM) modified / 1000”, `COc1cc(C[C@@H]2NCCc3cc(O)c(O)cc32)cc(OC)c1OC` [Trimethoquinol] displayed a CC50 at 24 h of over 50 µM.

Molecule `COc1cc(/C=C/c2ccccc2)oc(=O)c1` [Desmethoxyyangonin] registered a cytotoxic concentration (CC50) at 24 h (AC50 (uM) modified / 1000) of over 90 µM.

`Clc1ccccn1` [2-Chloropyridine] displayed a CC50 at 24 h (AC50 (uM) modified / 1000) of over 90 µM.

With `CC(C)(CO)C(O)C(=O)NCCCO` (centres unmarked) [Panthenol], the cytotoxic concentration (CC50) at 24 h (AC50 (uM) modified / 1000) is over 90 µM.

`C[C@]12CC[C@H]3[C@@H](CC[C@@]45O[C@@H]4C(O)=C(C#N)C[C@]35C)[C@@H]1CC[C@@H]2O` [Trilostane] returned a CC50 at 24 h (AC50 (uM) modified / 1000) of over 90 µM.

Where the note is “AC50 (uM) modified / 1000”, `CC(C)=CCC/C(C)=C/COC=O` [(2E)-3,7-Dimethylocta-2,6-dien-1-yl formate] registered a CC50 at 24 h of over 90 µM.

In turn, `CNC(C)Cc1ccccc1` (racemic) [dl-Methamphetamine hydrochloride] gave a CC50 at 24 h (AC50 (uM) modified / 1000) of over 90 µM.

With `Clc1cccc(Cl)c1N=C1NCCN1` [Clonidine hydrochloride], the CC50 at 24 h (AC50 (uM) modified / 1000) is over 90 µM.

For the setting “AC50 (uM) modified / 1000”, `Cc1ccc(Cl)c(Nc2ccccc2C(=O)O)c1Cl` [Meclofenamate sodium] registered a CC50 at 24 h of over 50 µM.

Where the note is “AC50 (uM) modified / 1000”, `CCOC(=O)C=CC(=O)O` [4-Ethoxy-4-oxobut-2-enoic acid] gave a cytotoxic concentration (CC50) at 24 h of over 90 µM.

For the setting “AC50 (uM) modified / 1000”, `OCCN1CCN(CC/C=C2/c3ccccc3Sc3ccc(C(F)(F)F)cc32)CC1` [cis-Flupentixol] gave a half-maximal cytotoxic concentration (CC50) at 24 h of 12.1 µM.

On to `O=C(/C=C/c1ccccc1)OCCc1ccccc1` [2-Phenylethyl 3-phenylprop-2-enoate], for which the cytotoxic concentration (CC50) at 24 h (AC50 (uM) modified / 1000) is over 90 µM.

Consider `CCN(Cc1ccccc1)c1ccccc1` [N-Ethyl-N-phenyl benzylamine], for which the CC50 at 24 h (AC50 (uM) modified / 1000) is over 90 µM.

As to `O=c1oc2cc(O)ccc2s1` [Thioxolone], the CC50 at 24 h (AC50 (uM) modified / 1000) is over 50 µM.

Molecule `O=C1CC[C@@H](C(=O)N[C@H]2C[C@@H]2c2ccccc2)N1` [Rolicyprine] had a 50% cytotoxic concentration (CC50) at 24 h (AC50 (uM) modified / 1000) of over 50 µM.

Molecule `Nc1c(CC(=O)O)cccc1C(=O)c1ccccc1` [Amfenac sodium] gave a 50% cytotoxic concentration (CC50) at 24 h (AC50 (uM) modified / 1000) of over 50 µM.

As for `CCOC(=O)O[C@]1(C(=O)COC(=O)CC)CC[C@H]2[C@@H]3CCC4=CC(=O)C=C[C@]4(C)[C@H]3[C@@H](O)C[C@@]21C` [Prednicarbate], for the setting “AC50 (uM) modified / 1000”, the 50% cytotoxic concentration (CC50) at 24 h is over 20 µM.

As to `COc1cc(Cl)ccc1Oc1ccc(Cl)cc1Cl` [Methyl triclosan], the midpoint of cytotoxicity (AC50 (uM) modified / 1000), the CC50 at 24 h, lay at 60.4 µM.

In turn, `CC(CNC(=O)c1cccnc1)NC(=O)c1cccnc1` (centres unmarked) [Nicaraven] displayed a CC50 at 24 h (AC50 (uM) modified / 1000) of over 50 µM.

As for `COc1ccc2c(c1)c1c3n2CCN(C)C3=NCC1` [Metralindole], the 50% cytotoxic concentration (CC50) at 24 h (AC50 (uM) modified / 1000) is over 50 µM.

For the setting “AC50 (uM) modified / 1000”, `CCNC1(c2cccs2)CCCCC1=O` (centres unmarked) [Tiletamine hydrochloride] returned a CC50 at 24 h of over 20 µM.

In turn, `CCCCCCCCCCCCC1CO1` (centres unmarked) [1,2-Epoxytetradecane] showed a cytotoxic concentration (CC50) at 24 h (AC50 (uM) modified / 1000) of over 90 µM.

On to `FC(F)(F)c1ccccc1-n1ccnc1` [1-[2-(Trifluoromethyl)phenyl]-1H-imidazole], for which the cytotoxic concentration (CC50) at 24 h (AC50 (uM) modified / 1000) was over 50 µM.

`Nc1ccc(N=Nc2ccc(N)cc2)cc1` [4,4'-Diaminoazobenzene] came in with a CC50 at 24 h (AC50 (uM) modified / 1000) of 32.1 µM.

As a reminder, the CC50 is the concentration at which the toxic effect on the cells reaches its halfway point.
